# The source made the active and inactive calls. No cut-off for these calls is given here.
# Columns and labels:
# Perknaster fuscus = assay: Deterrent activity against Perknaster fuscus assessed as induction of sustained retractions of tube-feet by sea-star deterrent assay; assay type: functional, organism-based
# [1] = system: Staphylococcus epidermidis; assay: Antimicrobial activity against Staphylococcus epidermidis at 120 ug/disk after 48 hrs by paper disk method; assay type: functional, organism-based
# Staphylococcus aureus = assay: Antimicrobial activity against Staphylococcus aureus at 120 ug/disk after 48 hrs by paper disk method; assay type: functional, organism-based
# Escherichia coli = assay: Antimicrobial activity against […] coli at 120 ug/disk after 48 hrs by paper disk method; assay type: functional, organism-based
# L5178Y = assay: Cytotoxicity against mouse L5178Y cells by trypan blue exclusion method; assay type: functional; conditions: read-out: LD50 (the source's name)
SMILES,Activity (Perknaster fuscus),also measured
Cn1c(N)nc2c(ncn2C)c1=O,inactive,
Cn1cnc2ncnc(N)c21,inactive,
O=C(O)CCNc1ncnc2[nH]c(=O)[nH]c12 [ERINACEAN],inactive,Activity [1]: Active; Activity (Staphylococcus aureus): Active; Activity (Escherichia coli): Active; CC50 (L5178Y): 50 µg/mL
O=c1ccn([C@@H]2O[C@H](CO)[C@@H](O)[C@H]2O)c(=O)[nH]1,inactive,
O=c1[nH]cnc2c1ncn2[C@@H]1O[C@H](CO)[C@@H](O)[C@H]1O,inactive,
O=Cc1ccc(O)cc1,Active,
Nc1ccn([C@H]2C[C@H](O)[C@@H](CO)O2)c(=O)n1,inactive,
